Series [1] relates to blood glucose level. In words: Blood glucose after intrarectal hog insulin gelatin capsular suppository in rabbits. It counts as in vivo. To be noted: rabbit, 9.6 units insulin, 10 parts enhancer. Here is the method: Fractionated coconut oil (90 parts) and 10 parts of each of the various pyroglutamates indicated in Table 7 were uniformly mixed, and then hog insulin was gradually added to form a uniform dispersion. The dispersion was filled in a gelatin capsule for suppositoes to form a gelatin capsular suppository. The suppository contained 9.6 units of insulin. The suppository was intrarectally administered to a rabbit and the blood glucose level after administration was measured by the glucose oxidase method.
For comparison, suppositories composed of 90 parts of fractionated coconut oil, 10 parts of the various pyroglutamates indicated in Table 7 (Comparisons 89 to 102) and insulin, and a suppository composed only of fractionated coconut oil and insulin (Comparison 103) were prepared, and tested in the same way as above.

Series [2] relates to serum calcium level. It counts as in vivo. Particulars: rabbit, nasal, 15 units/50 microliters calcitonin, 10 parts enhancer.
Experimental: This nasal drop contained 15 units/50 microliters of calcitonin. The nasal drop in a dose of 50 microliters was administered to the nasal cavity of a New Zealand rabbit (clean). The calcium concentration in the serum after administration was measured by using a calcium measuring kit (Iatoron Co.).
They were individually administered to the nasal cavity of a rabbit, and the concentration of calcium in the serum was measured.
Series [3] concerns serum calcium level. The series is described as follows: Serum calcium after intrarectal (Asu^1.7)-eel calcitonin suppository in rats. It counts as in vivo. Particulars: rat, 0.7 MRC unit calcitonin, 7 parts enhancer. Here is the method:
(Asu^1.7)-eel calcitonin was gradually added and mixed with the mixture to form a uniform composition. The composition was slightly warmed, and filled into a suppository container to form a suppository for rats having a diameter of about 3 mm and a length of about 8 mm. This suppository contained 0.7 MRC unit of calcitonin. The suppository was intrarectally administered to a rat, and the concentration of calcium in the blood serum after administration was measured by using a calcium measuring kit (made by Iatoron Co.).
For comparison, suppositories (Comparisons 76 to 87) composed of 93 parts of cacao butter, 7 parts of the various pyroglutamates shown in Table 6 and caltitonin and a suppository composed only of cacao butter and caltitonin (Comparison 88) were prepared. They wre individually administered intrarectally to rats, and the calcium concentration in the serum was measured.

The conditions of series [4]: dog, in vivo.
Experimental: Cacao butter (80 parts), 10 parts of each of the pyroglumtamates indicated in Table 8, and 10 parts of cephalothin sodium were uniformly mixed and then slightly warmed. The mixture was filled in a suppository container to form a suppository containing 1 g of the mixture. The suppository was administered intrarectally to a Beagle dog, and the concentration of cephalothin sodium in the blood after administration was measured by the cup method.
These suppositories were individually administered intrarectally to Beagle dogs, and the concentration of cephalothin sodium in the blood was measured.
Series [5] has as its system carrageenan-induced edema. The series is described as follows: Carrageenan-induced edema inhibiting effect of betamethasone valerate ointment. It counts as in vivo. To be noted: rat paw, 0.15 part betamethasone valerate, 9.85 parts enhancer, vs gel ointment base. As for the experimental part:
The carrageenan-induced edema inhibiting effect of the ointment was examined in accordance with the method of E. Passarella [Arzneim, Forsch. 30 (I), No. 4, pages 647-651 (1980)]. Specifically, 0.1 ml of a 1% carrageenan suspension in 0.9% NaCl solution was injected into the tip of the right paw of each rat (body weight 150-175 g). The volume of the paw was measured before the administation of carrageenan and 3, 5 and 6 hours after the carrageenan administration by a mercury displacement device. The ointment was well rubbed into the inflamed site in an amount of 100 mg.
These ointments were applied to the tip of the paw, and their edema inhibiting effects were examined.
The percent edema inhibitions were calculated on the basis of the edema formation ratio of a rat to which only the gel ointment base was administered.

Molecules are shown by their SMILES. Like-named read-outs stand apart in the source and are kept apart here.

Regarding `CC(C)=CCCC(C)CCOC(=O)[C@@H]1CCC(=O)N1` (stereo partly drawn) [Compound (224), Citronyl L-pyroglutamate], the “Percent decrease of the blood glucose level from that before administration” value in series [1] (30 min.) was determined as 29.2%; in series [1] (1 hr.) it was 32.1%; in series [1] (2 hrs.) it was 18.5%; in series [1] (3 hrs.) it was 3.1%. Further, the “Percent decrease of the serum calcium level from that before administration” value in series [2] (1 hr.) worked out at 9.0%; in series [2] (2 hrs.), 6.3%; in series [2] (3 hrs.), 2.2%; in series [2] (5 hrs.), 0.6%; in series [3] (1 hr.) it was 29.2%; in series [3] (2 hrs.) it was 26.7%. Also, the “Percent decrease of the serum calcium level from that before administration” value in series [3] (3 hrs.) stood at 11.4%; in series [3] (5 hrs.), 0.9%. Further, the “Concentration of cephalothin sodium in the blood” value in series [4] (60 min) is 300 ng/mL; in series [4] (180 min), 400 ng/mL; in series [4] (300 min), 300 ng/mL. In addition, the figures for the Edema inhibition in series [5] (3 hrs.), in series [5] (6 hrs.) and in series [5] (9 hrs.) were 19.5%, 38.8% and 38.5%, respectively.

For the origin of these results see patent publication US4789667A, “External pharmaceutical composition and methods of use” (priority 1984, dated 1988).
